Measured values published in patent US20230009608A1, “GRK2 INHIBITORS AND USES THEREOF” (Cygnal Therapeutics, Inc., priority 2020, published 2023).
Read-outs that look alike come from different tables or passages of the source.

Assays:
[1] = system: PAXF1657 control empty vector cell line; assay: 7-day proliferation assay, PAXF1657 control empty vector cell line (Example 9); format: cell-based; settings: 168 h; Cell Line: PAXF1657 empty vector (EV) cell line; 7-day; read-out: C: 7-day proliferation assay: IC50 GeoMean
In short: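 Seven-day growth in PAXF1657 lines engineered for GRK2 overexpression or knockout, measured by CellTiter-Glo; compounds tested at 30 μM-0.0002 μM final and replenished once at day 3.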

GRK2 = target: T1, GRK2 (Homo sapiens, UniProt P25098); assay: GRK2 Inhibition Assay (TR-FRET, Example 7); format: biochemical
T1 construct: purchased SignalChem A14-10G
T1 sequence (P25098 1-689): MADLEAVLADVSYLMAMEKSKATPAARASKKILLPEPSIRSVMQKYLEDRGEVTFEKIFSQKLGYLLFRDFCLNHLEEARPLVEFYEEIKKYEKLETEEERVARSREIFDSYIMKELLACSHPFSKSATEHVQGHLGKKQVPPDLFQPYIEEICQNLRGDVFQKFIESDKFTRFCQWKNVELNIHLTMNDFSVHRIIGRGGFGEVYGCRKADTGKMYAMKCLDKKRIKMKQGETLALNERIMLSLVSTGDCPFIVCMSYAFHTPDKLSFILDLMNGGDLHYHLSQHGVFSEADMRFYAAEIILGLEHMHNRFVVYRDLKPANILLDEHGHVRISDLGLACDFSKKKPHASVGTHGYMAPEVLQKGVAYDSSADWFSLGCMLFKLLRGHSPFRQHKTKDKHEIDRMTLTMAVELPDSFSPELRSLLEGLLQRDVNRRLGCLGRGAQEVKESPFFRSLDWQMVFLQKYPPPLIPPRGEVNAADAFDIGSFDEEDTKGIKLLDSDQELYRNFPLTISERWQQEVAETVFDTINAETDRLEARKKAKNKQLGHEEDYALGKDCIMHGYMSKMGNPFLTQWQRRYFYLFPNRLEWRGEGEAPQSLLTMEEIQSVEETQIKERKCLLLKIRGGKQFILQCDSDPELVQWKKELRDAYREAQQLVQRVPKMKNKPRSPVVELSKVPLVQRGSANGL
Description: Enzyme GRK2 (1 nM final concentration) was diluted in 25 mMv HEPES, 10 mM MgCl2, 2 mM DTT, 0.01% Tween-20, and 1 mM EGTA. Then the GRK2 mixture was added into ProxiPlate-384 white plate and pre-incubated for 30 min with test compounds at room temperature. ATP (7 μM final concentration) and Ulight TopoIIα (50 nM final concentration) were added into the assay plate to initiate the reaction and the mixture was incubated at room temperature for 90 min. Then, Eu anti-TopoIIα (0.12 nM final concentration), BSA (0.01% final concentration), and EDTA (11 mMv final concentration) in LANCE assay buffer were added into each well. After 60 min incubation time at room temperature, TR-FRET signal was measured by EnVision plate reader.

[2] = Enzyme Assay B, TR-FRET (Example 7), read-out: B: Enzymatic GRK2: IC50 (nM) (Example 7)
[3] = TR-FRET GRK2 enzyme assay, read-out: B: Enzymatic GRK2: IC50 (nM) (Example 7)

Row | Structure (SMILES) | IC50 [1] | IC50 (GRK2; [2]) | IC50 (GRK2) | IC50 (GRK2; [3])
1 | Cn1c(CNc2cc(C(=O)N[C@@H]3COc4ccccc43)ccn2)nnc1-c1ccncn1 | 1800 nM | 26 nM |  | 
2 | O=C(NCc1cccnc1C(F)(F)F)c1cccc(NCc2nnc(-c3ccncn3)n2CCCO)c1 | > 30000 nM | 5.8 nM |  | 
3 | Cc1ccc2c(c1)[C@H](NC(=O)c1cccc(NCc3nnc(-c4ccncn4)n3C)c1)CCO2 | 196 nM | 4.6 nM |  | 
4 | Cn1c(CNc2cccc(C(=O)N[C@H]3CC(C)(C)Oc4ccccc43)c2)nnc1-c1ccncn1 | > 30000 nM | 30 nM |  | 
5 | CCc1cnccc1CNC(=O)c1cccc(NCc2nnc(-c3ccncc3F)n2C)c1 | 1480 nM | 41 nM |  | 
6 | Cn1c(CNc2cccc(C(=O)N[C@@H]3CCOc4ccc(Br)cc43)c2)nnc1-c1ccncn1 | > 30000 nM | 510 nM |  | 
7 | Cn1c(CNc2cccc(C(=O)N[C@@H]3CCOc4c3cccc4C(F)(F)F)c2)nnc1-c1ccncn1 | > 972 nM | 3.8 nM |  | 
8 | Cn1c(CNc2cccc(C(=O)N[C@@H]3CCOc4cc(F)ccc43)c2)nnc1-c1ccncn1 | 168 nM | 1900 nM |  | 
9 | Cn1c(CNc2cccc(C(=O)N[C@H]3CCOc4c3cccc4C(F)(F)F)c2)nnc1-c1ccncn1 | > 30000 nM | 9.7 nM |  | 
10 | CCCn1c(CNc2cccc(C(=O)NCc3cccnc3OC)c2)nnc1-c1ccncn1 | > 30000 nM | 3.8 nM |  | 
11 | Cn1c(CNc2cccc(C(=O)N[C@@H]3CCOc4cc(Br)ccc43)c2)nnc1-c1ccncn1 | > 30000 nM | 7 nM |  | 
12 | CCCn1c(CNc2cccc(C(=O)N[C@H]3CCOc4ccccc43)c2)nnc1-c1ccncn1 | > 30000 nM | 2.3 nM |  | 
13 | CCCn1c(CNc2cccc(C(=O)NCc3ccccc3C(F)(F)F)n2)nnc1-c1ccncn1 | > 10000 nM | 200 nM |  | 
14 | Cc1cccc([C@@H](CO)NC(=O)c2ccnc(NCc3nnc(-c4ccncn4)n3C)c2)c1 | > 30000 nM | 96 nM |  | 
15 | Cn1c(CNc2cccc(C(=O)N[C@H]3CCOc4c3ccc(F)c4F)c2)nnc1-c1ccncn1 | > 30000 nM | 1500 nM |  | 
16 | O=C(NCc1cccc(OS(=O)(=O)F)c1)c1cccc(NCc2nnc(-c3ccncc3)[nH]2)c1 | > 30000 nM |  | 26 nM | 
17 | COc1ncccc1CNC(=O)c1cccc(NCc2nnc(-c3ccncc3)n2C)c1 | 810 nM | 15 nM |  | 
18 | COCCOc1cccc(CNC(=O)c2cccc(NCc3nnc(-c4ccncn4)n3C)c2)c1 | 779 nM | 39 nM |  | 
19 | Cn1c(CNc2cccc(C(=O)N[C@@H]3CCOc4cc(Cl)ccc43)c2)nnc1-c1ccncn1 | 240 nM | 8.4 nM |  | 
20 | Cn1c(CNc2cccc(C(=O)N[C@@H](C#N)c3ccccc3F)c2)nnc1-c1ccncn1 | 59.3 nM |  |  | 5.5 nM

Row | Structure (SMILES) | IC50 [1] | IC50 (GRK2; [2]) | IC50 (GRK2) | IC50 (GRK2; [3])
21 | O=C(N[C@H]1CCOc2c(Cl)cccc21)c1cccc(NCc2nnc(-c3ccncn3)n2CCO)c1 | 163 nM | 1.5 nM |  | 
22 | O=C(NCc1cccc(OS(=O)(=O)F)c1)c1cccc(NCc2nnc(-c3ccncc3)n2CCCO)c1 | > 30000 nM |  | 50 nM | 
23 | O=C(NCc1cccnc1C(F)(F)F)c1cccc(NCc2nnc(-c3ccncn3)n2CCCN2CCC[C@H]2CO)c1 | > 30000 nM | 1000 nM |  | 
24 | Cn1c(CNc2cccc(C(=O)N[C@H]3CCOc4c(Br)cccc43)c2)nnc1-c1ccncn1 | > 30000 nM | 3.6 nM |  | 
25 | COc1ccc(CNC(=O)c2cccc(NCc3nnc4n3CCOc3cnccc3-4)c2)c(F)c1 | > 30000 nM | 1.6 nM |  | 
26 | Cn1c(CNc2cccc(C(=O)N[C@@H]3CCOc4ccc(Cl)cc43)c2)nnc1-c1ccncn1 | 33.9 nM | 2.9 nM |  | 
27 | Cc1cc2c(cc1CNC(=O)c1cccc(NCc3nnc(-c4ccncn4)n3CCO)c1)OCCO2 | > 30000 nM | 1.4 nM |  | 
28 | Cn1c(CNc2cccc(C(=O)N[C@H]3CCOc4cc(Br)ccc43)c2)nnc1-c1ccncn1 | > 30000 nM | 11 nM |  | 
29 | O=C(NCc1cccc2c1OCC2)c1cccc(NCc2nnc3n2CCOc2cnccc2-3)c1 | 3010 nM | 2.4 nM |  | 
30 | COc1ccc(CNC(=O)c2cccc(NCc3nnc(-c4ccncc4)n3CCO)c2)c(F)c1 | > 30000 nM | 4.9 nM |  | 
31 | O=C(NC1(c2ccccc2)CCOCC1)c1cccc(NCc2nnc3n2CCOc2cnccc2-3)c1 | 20300 nM | 39 nM |  | 
32 | O=C(NCc1cccc2c1OCC2)c1cccc(NCc2nnc(-c3ccncn3)n2CCO)c1 | > 30000 nM | 1.7 nM |  | 
33 | CCCn1c(CNc2cccc(C(=O)NCc3c(OC)cccc3OC)c2)nnc1-c1ccncn1 | > 30000 nM | 3.1 nM |  | 
34 | Cc1ccc2c(c1)[C@H](NC(=O)c1cccc(NCc3nnc(-c4ccncn4)n3C)c1)CC(C)(C)O2 | > 30000 nM | 48 nM |  | 
35 | Cc1cccnc1CNC(=O)c1cccc(NCc2nnc(-c3ccncn3)n2CCO)c1 | 1160 nM | 2.5 nM |  | 
36 | O=C(N[C@H]1CCOc2ccccc21)c1cccc(NCc2nnc(-c3ccncc3)n2CCO)c1 | 4580 nM | 8.2 nM |  | 
37 | CCCn1c(CNc2cccc(C(=O)NCc3cccnc3C(F)(F)F)c2)nnc1-c1ccncn1 | 667 nM | 2.6 nM |  | 
38 | CCc1cnccc1CNC(=O)c1cccc(NCc2nnc(-c3ccncn3)n2CCCOC)c1 | > 30000 nM | 23 nM |  | 
39 | C[C@H](NC(=O)c1ccnc(NCc2nnc(-c3ccncn3)n2C)c1)c1ncccc1Cl | > 30000 nM | 65 nM |  | 
40 | Cn1c(CNc2cccc(C(=O)N[C@H]3CCOc4ccc(Cl)cc43)c2)nnc1-c1ccncn1 | > 30000 nM | 120 nM |  | 

Row | Structure (SMILES) | IC50 [1] | IC50 (GRK2; [2]) | IC50 (GRK2) | IC50 (GRK2; [3])
41 | CCOc1ccccc1CNC(=O)c1cccc(NCc2nnc(-c3ccncc3)n2CCO)c1 | 6310 nM | 19 nM |  | 
42 | O=C(NCc1cccc2c1OCC2)c1cccc(NCc2nnc(-c3ccncc3)[nH]2)c1 | > 30000 nM | 2.9 nM |  | 
43 | COCCCn1c(CNc2cccc(C(=O)NCc3cccnc3C(F)(F)F)c2)nnc1-c1ccncn1 | 1200 nM | 15 nM |  | 
44 | O=C(NCc1ccccc1OS(=O)(=O)F)c1cccc(NCc2nnc(-c3ccncc3)[nH]2)c1 | 7640 nM |  | 12 nM | 
45 | CCCn1c(CNc2cccc(C(=O)NC3(c4ccccc4)CCOCC3)c2)nnc1-c1ccncn1 | 9260 nM | 22 nM |  | 
46 | CCCn1c(CNc2cccc(C(=O)NCc3ccccc3OCC)c2)nnc1-c1ccncn1 | > 30000 nM | 8.2 nM |  | 
47 | O=C(NCc1cccc(F)c1)c1cccc(NCc2nnc3n2CCOc2cnccc2-3)c1 | 7020 nM | 3.7 nM |  | 
48 | O=C(NCc1cccc(F)c1)c1cccc(NCc2nnc(-c3ccncc3)n2CCO)c1 | > 30000 nM | 9.2 nM |  | 
49 | Cn1c(CNc2cc(C(=O)N[C@H]3CCOc4c(Cl)cccc43)ccn2)nnc1-c1ccncn1 | > 30000 nM | 63 nM |  | 
50 | CCCn1c(CNc2cccc(C(=O)NCc3ccc(OC)cc3F)c2)nnc1-c1ccncn1 | > 30000 nM | 2.1 nM |  | 
51 | [2H]C([2H])(Nc1cccc(C(=O)N[C@H]2CCOc3ccccc32)c1)c1nnc(-c2ccccn2)n1C | 2650 nM |  |  | 8.3 nM
52 | C[C@@H](NC(=O)c1ccnc(NCc2nnc(-c3ccncn3)n2C)c1)c1ncccc1Cl | > 30000 nM | 55 nM |  | 
53 | CCCn1c(CNc2cccc(C(=O)NCc3cccc(F)c3)c2)nnc1-c1ccncn1 | 19200 nM | 5.3 nM |  | 
54 | COc1cccc(OC)c1CNC(=O)c1cccc(NCc2nnc(-c3ccncc3)n2CCO)c1 | > 30000 nM | 23 nM |  | 
55 | CCCn1c(CNc2cccc(C(=O)NCc3cccc4c3OCC4)c2)nnc1-c1ccncn1 | > 30000 nM | 2 nM |  | 
56 | Cn1c(CNc2cccc(C(=O)N[C@H]3CCOc4ccc(Br)cc43)c2)nnc1-c1ccncn1 | 42.6 nM | 2.6 nM |  | 
57 | Cn1c(CNc2cccc(C(=O)NCc3cc[nH]n3)c2)nnc1-c1ccncn1 | > 10000 nM | 39 nM |  | 
58 | Cn1c(CNc2cccc(C(=O)N[C@@H]3CCOc4c(Br)cccc43)c2)nnc1-c1ccncn1 | 1630 nM | 13 nM |  | 
59 | O=C(NCc1cccc2c1OCC2)c1cccc(NCc2nnc(-c3ccncn3)n2CCCO)c1 | 14500 nM | 4.2 nM |  | 
60 | O=C(NCc1ccccc1OS(=O)(=O)F)c1cccc(NCc2nnc(-c3ccncc3)n2CCCO)c1 | > 30000 nM |  | 17 nM | 
